Results: US12606556B2, “TYK-2 inhibitor” (BEIGENE, LTD., priority 2020, dated 2026)

Key:
[1] = target: T1, JAK1-JH2 protein (aa 561-860, in-house) (Homo sapiens, UniProt P23458); experiment: JAK1-JH2 biochemical assay (HTRF, blocking of JAK1-JH2 protein with its probe); format: binding; details: 1.17 nM recombinant JAK1-JH2, Probe 2
T1 construct: JAK1-JH2 protein (aa 561-860, in-house); made in house
Method: Assay B: JAK1-JH2 Biochemical Assay
Compounds disclosed herein were tested for blocking of JAK1-JH2 protein (aa 561-860, in-house) with its probe in an assay based on Homogeneous Time Resolved Fluorescence. Compound dilution is done according to the following protocol: (1) Prepare 500× compounds solution in DMSO from 500 uM by 5-fold dilution, total 10 doses were included; (2) Prepare 10× compounds solution in an assay buffer containing 20 mM HEPES, pH 7.5, 10 mM MgCl2, 0.005% BSA, 2 mM DTT, 0.015% Brij-35 by transferring 1 μl serial 500× stock solution into 49 μl assay buffer. 4 μL of 1.17 nM recombinant JAK1-JH2 protein was pre-incubated with 1 μl of 10×serial dilution of compounds at room temperature for 0.5 hour. […] The HTRF signals (ex337 nm, em620 nm/665 nm) were read on BMG PHERAstar FS instrument. The inhibition percentage of JAK1 interaction with its probe in presence of increasing concentrations of compounds was calculated based on the ratio of fluorescence at 615 nm to that at 665 nm. The IC50 for each compound was derived from fitting the data to the four-parameter logistic equation by Dotmatics.

[2] = target: T2, TYK2-JH2 (aa 575-869, in-house) protein (Homo sapiens, UniProt P29597); experiment: TYK2-JH2 biochemical assay (HTRF, blocking of TYK2-JH2 protein with its probe); format: binding; details: for IC50: HTRF, 0.2 nM recombinant TYK2-JH2, Probe 1; for Biochemical assay Selectivity fold (TYK2/JAK1): TYK2-JH2 vs JAK1-JH2 biochemical IC50
T2 construct: TYK2-JH2 (aa 575-869, in-house) protein; made in house
T2 sequence (P29597 575-869): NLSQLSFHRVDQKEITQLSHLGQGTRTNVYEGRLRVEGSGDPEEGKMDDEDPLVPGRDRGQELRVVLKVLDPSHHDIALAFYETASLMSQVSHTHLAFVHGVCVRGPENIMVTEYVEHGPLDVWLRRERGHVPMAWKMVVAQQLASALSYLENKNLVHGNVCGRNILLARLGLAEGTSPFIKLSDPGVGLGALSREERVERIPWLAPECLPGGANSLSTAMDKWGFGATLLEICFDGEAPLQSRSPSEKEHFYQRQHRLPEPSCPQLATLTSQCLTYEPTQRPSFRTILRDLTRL
Method: Assay A: TYK2-JH2 Biochemical Assay
Compounds disclosed herein were tested for blocking of TYK2-JH2 (aa 575-869, in-house) protein with its probe in an assay based on Homogeneous Time Resolved Fluorescence.
Compound dilution is done according to the following protocol: (1) Prepare 500× compounds solution in DMSO from 500 uM by 5-fold dilution, total 10 doses were included; (2) Prepare 10× compounds solution in an assay buffer containing 20 mM HEPES, pH 7.5, 10 mM MgCl2, 0.005% BSA, 2 mM DTT, 0.015% Brij-35 by transferring 1 μl serial 500× stock solution into 49 μl assay buffer. 4 μl of 0.2 nM recombinant TYK2-JH2 protein was pre-incubated with 1 μl of 10×serial dilution of compounds at room temperature for 0.5 hour. Then 5 μl of 10 nM in-house Probe 1 (6-((3,5-dimethylphenyl)amino)-8-((4,26-dioxo-30-((3aS,4S,6aR)-2-oxohexahydro-1H-thieno[3,4-d]imidazol-4-yl)-7,10,13,16,19,22-hexaoxa-3,25-diazatriacontyl)amino)imidazo[1,2-b]pyridazine-3-carboxamide, KD=10 nM), 5 μl Mab Anti-6His Tb cryptate Gold (Cat: 61HI2TLB, Cisbio Bioassays) and Streptavidin-XL665(Cat: 610SAXLB, Cisobio Bioassays) mixture were added to plate and further incubated at room temperature for 1 hour. The HTRF signals (ex337 nm, em620 nm/665 nm) were read on BMG PHERAstar FS instrument. The inhibition percentage of TYK2 interaction with its probe in presence of increasing concentrations of compounds was calculated based on the ratio of fluorescence at […]. The IC50 for each compound was derived from fitting the data to the four-parameter logistic equation by Dotmatics.

[3] = tested on: JAK2, TYK2/p-STAT4 (Tyr693) activated by IL-12 in NK-92 cell line; experiment: IL-12-JAK2, TYK2/p-STAT4 (Tyr693) inhibition cellular assay; format: cell-based; details: for IC50: NK92, 0.5 h, NK-92 cells, IL-12 40 ng/ml, 30 min, read-out: Cellular assay pSTAT4/IL-12 IC50; for Cellular assay Selectivity fold (TYK2/JAK1): pSTAT4/IL-12 vs pSTAT3/IL-6 cellular IC50
Excerpt: Assay C: IL-12-JAK2, TYK2/p-STAT4 (Tyr693) Inhibition IC50 Cellular Assay
To evaluate the inhibition effect of compounds disclosed herein on JAK2, TYK2/p-STAT4 (Tyr693) activated by IL-12 in NK-92 cell line, NK-92 cells were collected and washed 3 times by DPBS and resuspended in MEM-α(GIBCO,Cat #12561056) with 10% FBS (Gibco, Cat #10099, Lot #1891605), without IL-2 (R&D systems,Cat #202-IL), starved overnight. Cells were collected and resuspended in 1640 medium (phenol red free, Gibco, Cat #11835-030) with 0.1% BSA, and 12.5 μl/5×10^4/well cell suspension were seeded to the 96-well plate (Corning, Cat #3799). Then cells were treated with compounds diluted in 0.2% DMSO 1640 medium, at 37° C., 1 h. Dilution is done according to the following protocol: (1) make 500× compounds solution in DMSO from 5 mM by 4-fold dilution, total 8 doses were included; (3) make 2× compounds solution in assay medium by transferring 0.5 μl serial 500× stock solution into 125 μl assay medium; (4) 15 μl of 2× serial solution is added to cells and incubate at 37° C. for 1 h, the final compound conc. is 10000,2500,625,156.25,39,9.8,2.4 and 0.61 nM, respectively. After 1 h, cells were treated with 2.5 μl medium containing IL-12 at 37° C. (R&D systems, Cat #219-IL-005, final conc.40 ng/ml), 30 min. Following cells were lysed with 7.5 μl lysis buffer at RT, shaking on shaker for 1 h. 10 μL of cell lysate were transferred to a PE 384-well Proxiplate detection plate, and 5 μL of pre-mixed Alphascreen beads were added to each well. Covered the plate with a plate sealer, span 1000 rpm for 1 min, mix, Incubated overnight at room temperature. Read on BMG PheraStar with Alphascreen protocol. IC 50 values were calculated by fitting dependent data to the four-parameter logistic model using dotmatics software. The assay was performed by using AlphaLISA SureFire Ultra p-STAT4 (Tyr693) Assay Kit—High Volume (PE, Cat #ALSU-PST4-A-HV).

[4] = tested on: JAK1/p-STAT3(Tyr705) activated by IL-6 in TF-1 cell line; experiment: IL-6-JAK1/p-STAT3(Tyr705) inhibition cellular assay; format: cell-based; details: Homo sapiens, 0.5 h; TF-1 cells, IL-6 50 ng/ml, 30 min; read-out: Cellular assay pSTAT3/IL-6 IC50
Excerpt: Assay D: IL-6-JAK1/p-STAT3(Tyr705) Inhibition IC50 Cellular Assay
To evaluate the inhibition effect of compounds disclosed herein on JAK1/p-STAT3(Tyr705) activated by IL-6 in TF-1 cell line, TF-1 cells were collected and washed 3 times by DPBS and resuspended in RPMI-1640 (phenol red free, Gibco, Cat #11835-030) with 0.1% FBS (Gibco, Cat #10099, Lot #1891605), without GM-CSF(R&D systems,Cat #215-GM-050), starved overnight. Cells were collected and resuspended in 1640 medium (phenol red free, Gibco, Cat #11835-030) with 0.1% BSA, and 12.5 μl/10×10^4/well cell suspension were seeded to the 96-well plate (Corning, Cat #3799). Then cells were treated with compounds diluted in 0.2% DMSO 1640 medium, at 37° C., 1 h. Dilution is done according to the following protocol: (1) make 500× compounds solution in DMSO from 5 mM by 4-fold dilution, total 8 doses were included; (3) make 2× compounds solution in assay medium by transferring 0.5 μl serial 500× stock solution into 125 μl assay medium; (4) 15 μl of 2× solution is added to cells and incubate at 37° C. for 1 h, the final compound conc. is 10000,2500,625,156.25,39,9.8,2.4 and 0.61 nM, respectively. After 1 h, cells were treated with 2.5 μl medium containing IL-6 at 37° C. (R&D systems, Cat #206-IL-010, final conc.50 ng/ml), 30 min. Following cells were lysed with 10 μl lysis buffer at RT, shaking on shaker for 1 h. 16 μL of cell lysate were transferred to a PE 384-well HTRF detection plate, and 4 μL of pre-mixed HTRF antibodies were added to each well. Covered the plate with a plate sealer, span 1000 rpm for 1 min, mix, Incubated overnight at room temperature. Read on BMG PheraStar with HTRF protocol (337 nm-665 nm-620 nm). IC 50 values were calculated by fitting dependent data to the four-parameter logistic model using dotmatics software. The assay was performed by using HTRF Phospho-STAT3(Tyr705) Cellular Assay Kit (Cisbio, Cat #62AT3PEG).

T1 sequence (P23458 561-860): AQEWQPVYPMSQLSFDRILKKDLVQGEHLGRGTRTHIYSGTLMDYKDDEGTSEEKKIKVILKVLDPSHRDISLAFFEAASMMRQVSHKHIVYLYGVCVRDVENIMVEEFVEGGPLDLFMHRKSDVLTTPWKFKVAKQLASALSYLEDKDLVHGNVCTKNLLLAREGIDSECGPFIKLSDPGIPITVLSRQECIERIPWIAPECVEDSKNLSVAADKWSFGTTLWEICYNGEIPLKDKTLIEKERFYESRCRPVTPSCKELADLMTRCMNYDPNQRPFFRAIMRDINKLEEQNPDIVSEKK

IC50 [1]	IC50 [2]	Biochemical assay Selectivity fold (TYK2/JAK1) [2]	IC50 [3]	IC50 [4]	Structure (SMILES)	Cellular assay Selectivity fold (TYK2/JAK1) [3]
> 10000 nM	456 nM	>22 fold			CNC(=O)c1nnc(NC(=O)C2CC2)cc1Nc1nc2ccccc2o1 [Example A1, 4-(benzo[d]oxazol-2-ylamino)-6-(cyclopropanecarboxamido)-N-methylpyridazine-3-carboxamide]	
174 nM	34 nM	5 fold			CNC(=O)c1nnc(NC(=O)C2CC2)cc1Nc1nc2ccccc2n1C [Example A2, 6-(cyclopropanecarboxamido)-N-methyl-4-((1-methyl-1H-benzo[d]imidazol-2-yl)amino) pyridazine-3-carboxamide]	
3.7 nM	1.4 nM	2.6 fold			CNC(=O)c1nnc(NC(=O)C2CC2)cc1Nc1nc2ccccc2[nH]1 [Example A3, 4-((1H-benzo [d]imidazol-2-yl)amino)-6-(cyclopropane-carboxamido)-N-methyl-pyridazine-3-carboxamide]	
1.3 nM	0.16 nM	8 fold	104 nM	2410 nM	CNC(=O)c1nnc(NC(=O)C2CC2)cc1Nc1nc2ccccn2n1 [Example A4, 4-([1,2,4]triazolo[1,5-a]pyridin-2-ylamino)-6-(cyclopropane-carboxamido)-N-methyl-pyridazine-3-carboxamide]	23 fold
13 nM	0.56 nM	23 fold	> 10000 nM	> 10000 nM	CNC(=O)c1nnc(NC(=O)C2CC2)cc1Nc1nc2ccc(P(C)(C)=O)cn2n1 [Example A5, 6-(cyclopropanecarboxamido)-4-((6-(dimethylphosphoryl)-[1,2,4]triazolo[1,5-a]pyridin-2-yl)amino)-N-methyl-pyridazine-3-carboxamide]	
2.03 nM	0.936 nM	2 fold	3530 nM	> 10000 nM	CNC(=O)c1nnc(NC(=O)C2CC2)cc1Nc1nc2cc(OC)c(N3CCC3)cn2n1 [Example B1, 4-((6-(azetidin-1-yl)-7-methoxy-[1,2,4]triazolo[1,5-a]pyridin-2-yl)amino)-6-(cyclopropanecarboxamido)-N-methylpyridazine-3-carboxamide]	>3 fold
1.3 nM	0.1 nM	13 fold			CNC(=O)c1nnc(NC(=O)C2CC2)cc1Nc1nc2ccc(OC3CN(C(=O)OC(C)(C)C)C3)cn2n1 [Example C1, tert-butyl 3-((2-((6-(cyclopropanecarboxamido)-3-(methylcarbamoyl)pyridazin-4-yl)amino)-[1,2,4]triazolo[1,5-a]pyridin-6-yl)oxy)azetidine-1-carboxylate]	
1.2 nM	0.14 nM	9 fold			CNC(=O)c1nnc(NC(=O)C2CC2)cc1Nc1nc2ccc(OC3CNC3)cn2n1 [Example C2, 4-((6-(azetidin-3-yloxy)-[1,2,4]triazolo[1,5-a]pyridin-2-yl)amino)-6-(cyclopropanecarboxamido)-N-methylpyridazine-3-carboxamide]	
1.2 nM	0.08 nM	15 fold	68.8 nM	> 10000 nM	CNC(=O)c1nnc(NC(=O)C2CC2)cc1Nc1nc2ccc(OC3CN(S(C)(=O)=O)C3)cn2n1 [Example C3, 6-(cyclopropanecarboxamido)-N-methyl-4-((6-((1-(methylsulfonyl)azetidin-3-yl)oxy)-[1,2,4]triazolo[1,5-a]pyridin-2-yl)amino)pyridazine-3-carboxamide]	>145 fold
5.8 nM	0.18 nM	32 fold			CNC(=O)c1nnc(NC(=O)C2CC2)cc1Nc1nc2ccc(N3CCC(N4CCC4)CC3)cn2n1 [Example E11, 4-((6-(4-(azetidin-1-yl)piperidin-1-yl)-[1,2,4]triazolo[1,5-a]pyridin-2-yl)amino)-6-(cyclopropanecarbox-amido)-N-methyl-pyridazine-3-carboxamide]	
